These results are taken from PubChem BioAssay AID248 (DTP/NCI, 2004).

Where “and” joins values, the source holds several entries; their conditions need not be identical. Equal entries are not always repeated. Inconclusive results and toxic doses are left out.

The assay relates to L1210 leukemia ip in BDF1 mice, survival T/C. Briefly: NCI In Vivo Anticancer Drug Screen. Data for tumor model L1210 Leukemia (intraperitoneal) in B6D2F1 (BDF1) mice. The following applies: endpoint: mean survival time, higher = longer survival. The gist of the method: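 Each compound was tested against a transplantable tumor grown in mice. The endpoint was survival, with treated animals benchmarked against vehicle controls as a simple ratio.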

Where [1] appears, read: dose: 100.0 mg/kg/injection, schedule: Q01DX009 (ip), vehicle: Klucel (hydroxypropylcellulose) (HPC).
The mark [2] stands for this setting: dose: 100.0 mg/kg/injection, schedule: Q04DX003 (ip), vehicle: Klucel (hydroxypropylcellulose) (HPC).
The mark [3] stands for this setting: dose: 200.0 mg/kg/injection, schedule: Q01DX009 (ip), vehicle: Klucel (hydroxypropylcellulose) (HPC).
The mark [4] stands for this setting: dose: 200.0 mg/kg/injection, schedule: Q04DX003 (ip), vehicle: Klucel (hydroxypropylcellulose) (HPC).
[5] abbreviates: dose: 400.0 mg/kg/injection, schedule: Q01DX009 (ip), vehicle: Klucel (hydroxypropylcellulose) (HPC).
Setting [6] is: dose: 400.0 mg/kg/injection, schedule: Q04DX003 (ip), vehicle: Klucel (hydroxypropylcellulose) (HPC).
The mark [7] stands for this setting: dose: 50.0 mg/kg/injection, schedule: Q01DX009 (ip), vehicle: saline with Tween-80.
Setting [8] is: dose: 100.0 mg/kg/injection, schedule: Q01DX009 (ip), vehicle: saline with Tween-80.
[9] abbreviates: dose: 100.0 mg/kg/injection, schedule: Q01DX009 (ip), vehicle: saline.
Setting [10] is: dose: 100.0 mg/kg/injection, schedule: Q04DX003 (ip), vehicle: saline with Tween-80.
Setting [11] is: dose: 200.0 mg/kg/injection, schedule: Q04DX003 (ip), vehicle: saline with Tween-80.
The mark [12] stands for this setting: dose: 100.0 mg/kg/injection, schedule: Q04DX002 (ip), vehicle: Klucel (hydroxypropylcellulose) (HPC).
The mark [13] stands for this setting: dose: 200.0 mg/kg/injection, schedule: Q04DX002 (ip), vehicle: Klucel (hydroxypropylcellulose) (HPC).
[14] abbreviates: dose: 50.0 mg/kg/injection, schedule: Q04DX002 (ip), vehicle: saline with Tween-80.

Take `CCCCCCCCCC(=O)Nc1ccccc1CC`: the T/C runs as follows: (dose: 100.0 mg/kg/injection, schedule: Q04DX002 (ip), vehicle: other) 116 % of control; (dose: 200.0 mg/kg/injection, schedule: Q04DX002 (ip), vehicle: other) 105 % of control; (dose: 400.0 mg/kg/injection, schedule: Q04DX002 (ip), vehicle: other) 101 % of control.

On to `Cc1cc(=O)c(O)co1`, for which the T/C was 98 % of control under setting [1]; 101 % of control under setting [2]; 93 % of control under setting [3]; 101 % of control under setting [4]; 93 % of control under setting [5]; 101 % of control under setting [6].

For `CCOC(=O)/C=C\C(=O)O.[Mn]`, the T/C runs as follows: (dose: 25.0 mg/kg/injection, schedule: Q01DX009 (ip), vehicle: saline with Tween-80) 97 % of control; (dose: 25.0 mg/kg/injection, schedule: Q04DX003 (ip), vehicle: saline) 108 % of control; under setting [7], 108 % of control; (dose: 50.0 mg/kg/injection, schedule: Q04DX003 (ip), vehicle: saline) 106 % of control; under setting [8], 110 % of control; (dose: 100.0 mg/kg/injection, schedule: Q04DX003 (ip), vehicle: saline) 103 % of control and 108 % of control. Also, the T/C (dose: 200.0 mg/kg/injection, schedule: Q04DX003 (ip), vehicle: saline) was 120 % of control.

Regarding `NNc1ncnc2nncnc12`, the T/C reads like this: (dose: 9.5 mg/kg/injection, schedule: Q01DX001 (ip), vehicle: other) 98 % of control; (dose: 19.0 mg/kg/injection, schedule: Q01DX001 (ip), vehicle: other) 105 % of control; (dose: 38.0 mg/kg/injection, schedule: Q01DX001 (ip), vehicle: other) 104 % of control.

For the molecule `c1cnc2[nH]cnc2n1`, the T/C was 86 % of control under setting [9]; 100 % of control under setting [2]; 109 % of control (dose: 200.0 mg/kg/injection, schedule: Q01DX009 (ip), vehicle: saline); 100 % of control under setting [4]; 112 % of control (dose: 400.0 mg/kg/injection, schedule: Q01DX009 (ip), vehicle: saline); 105 % of control under setting [6].

As for `C1CCC2C[N-]CCC2C1.C1CCC2C[N-]CCC2C1.C1CCC2C[N-]CCC2C1.C1CCC2C[N-]CCC2C1.[I][Fe][I]` (centres undefined), the T/C is 89 % of control (dose: 50.0 mg/kg/injection, schedule: Q01DX009 (ip), vehicle: saline) and 94 % of control under setting [9].

Turning to `Oc1c(Br)ccc2c(O)c(Br)ccc12`, the T/C was 87 % of control under setting [10]; 107 % of control (dose: 118.0 mg/kg/injection, schedule: Q01DX009 (ip), vehicle: saline with Tween-80); 92 % of control under setting [11]; 103 % of control (dose: 235.0 mg/kg/injection, schedule: Q01DX009 (ip), vehicle: saline with Tween-80); 95 % of control (dose: 400.0 mg/kg/injection, schedule: Q04DX003 (ip), vehicle: saline with Tween-80); 103 % of control (dose: 470.0 mg/kg/injection, schedule: Q01DX009 (ip), vehicle: saline with Tween-80).

As to `CCN(CC)COC(=O)C(C)(C)C`, the T/C by setting is: (dose: 75.0 mg/kg/injection, schedule: Q01DX001 (ip), vehicle: carboxymethylcellulose (CMC)) 103 % of control; (dose: 150.0 mg/kg/injection, schedule: Q01DX001 (ip), vehicle: carboxymethylcellulose (CMC)) 94 % of control.

On to `NC(=O)N/N=C/C(=O)O`, for which the T/C reads like this: under setting [12], 96 % of control; under setting [13], 104 % of control; (dose: 400.0 mg/kg/injection, schedule: Q04DX002 (ip), vehicle: Klucel (hydroxypropylcellulose) (HPC)) 104 % of control.

On to `CC1=C2C(=CO[C@H](C)[C@H]2C)C(=O)C(C(=O)O)=C1O`, for which the T/C (dose: 12.5 mg/kg/injection, schedule: Q04DX002 (ip), vehicle: saline with Tween-80) was 88 % of control; the T/C (dose: 25.0 mg/kg/injection, schedule: Q04DX002 (ip), vehicle: saline with Tween-80) was 103 % of control; the T/C under setting [14] was 102 % of control and 88 % of control.

For `Oc1ccc(Cl)cc1/C=N/Nc1c2ccccc2nc2ccccc12`, the T/C by setting is: (dose: 100.0 mg/kg/injection, schedule: Q01DX001 (ip), vehicle: saline) 89 % of control; (dose: 200.0 mg/kg/injection, schedule: Q01DX001 (ip), vehicle: saline) 103 % of control; (dose: 400.0 mg/kg/injection, schedule: Q01DX001 (ip), vehicle: saline) 105 % of control.

`C=CCn1cnc2c(=S)nc[nH]c21`: the T/C (dose: 12.0 mg/kg/injection, schedule: Q01DX015 (ip), vehicle: other) is 124 % of control; the T/C (dose: 37.5 mg/kg/injection, schedule: Q01DX Z (ip), vehicle: alkali diluted with saline) was 166 % of control; the T/C (dose: 63.0 mg/kg/injection, schedule: Q01DX015 (ip), vehicle: other) is 92 % of control; the T/C (dose: 75.0 mg/kg/injection, schedule: Q01DX Z (ip), vehicle: alkali diluted with saline) is 114 % of control; the T/C (dose: 100.0 mg/kg/injection, schedule: Q01DX001 (ip), vehicle: other) was 116 % of control; the T/C (dose: 108.0 mg/kg/injection, schedule: Q01DX015 (ip), vehicle: other) is 87 % of control. The T/C (dose: 150.0 mg/kg/injection, schedule: Q01DX Z (ip), vehicle: alkali diluted with saline) was 92 % of control.

As for `CCCCCCCCCCCCCCCC[N+](C)(C)C1=C([O-])C(=O)N(c2ccc(Cl)c(Cl)c2)C1=O`, the T/C reads like this: under setting [14], 94 % of control; (dose: 100.0 mg/kg/injection, schedule: Q04DX002 (ip), vehicle: saline with Tween-80) 94 % of control.

As to `COc1cccc(C2NC(=S)N3C(c4cccc(OC)c4)NC(=S)N23)c1` (centres undefined), the T/C (dose: 100.0 mg/kg/injection, schedule: Q01DX009 (ip), vehicle: gum acacia) is 108 % of control; the T/C (dose: 100.0 mg/kg/injection, schedule: Q04DX003 (ip), vehicle: gum acacia) was 88 % of control; the T/C (dose: 200.0 mg/kg/injection, schedule: Q01DX009 (ip), vehicle: gum acacia) is 99 % of control; the T/C (dose: 200.0 mg/kg/injection, schedule: Q04DX003 (ip), vehicle: gum acacia) was 100 % of control; the T/C (dose: 400.0 mg/kg/injection, schedule: Q01DX009 (ip), vehicle: gum acacia) is 93 % of control; the T/C (dose: 400.0 mg/kg/injection, schedule: Q04DX003 (ip), vehicle: gum acacia) is 95 % of control.

As to `COC(=O)C1(COC(C)=O)CC1`, the T/C reads like this: (dose: 50.0 mg/kg/injection, schedule: Q01DX001 (ip), vehicle: saline with Tween-80) 103 % of control; (dose: 100.0 mg/kg/injection, schedule: Q01DX001 (ip), vehicle: saline with Tween-80) 97 % of control; (dose: 200.0 mg/kg/injection, schedule: Q01DX001 (ip), vehicle: saline with Tween-80) 103 % of control.

Turning to `CSc1ccc(NC(=O)N(Cc2ccccc2)c2ccccc2)cc1`, the T/C runs as follows: under setting [1], 106 % of control; under setting [3], 101 % of control; under setting [5], 95 % of control.

As to `O=C(O)C(=C(c1ccccc1)c1ccccc1)c1cccc2ccccc12`, the T/C by setting is: (dose: 50.0 mg/kg/injection, schedule: Q04DX002 (ip), vehicle: Klucel (hydroxypropylcellulose) (HPC)) 98 % of control; under setting [1], 101 % of control; under setting [12], 100 % of control; under setting [13], 100 % of control.

As for `CCN(CC)C(=O)CSC#N`, the T/C (dose: 6.25 mg/kg/injection, schedule: Q04DX002 (ip), vehicle: other) is 88 % of control and the T/C (dose: 12.5 mg/kg/injection, schedule: Q04DX002 (ip), vehicle: other) is 103 % of control.

With `NC(=O)c1ccccc1C(Cl)(Cl)Cl`, the T/C runs as follows: under setting [7], 88 % of control; under setting [8], 89 % of control; under setting [10], 104 % of control; under setting [11], 96 % of control.

As to `COC(=O)c1ccc(OC(=O)Nc2cccc(C(C)=O)c2)cc1`, the T/C runs as follows: under setting [1], 96 % of control; under setting [3], 101 % of control; under setting [5], 104 % of control.

With `O=C(c1ccc(Cl)cc1)C1Cc2ccccc2C1=O` (centres undefined), the T/C runs as follows: under setting [1], 97 % of control; under setting [2], 101 % of control; under setting [3], 94 % of control; under setting [4], 101 % of control; under setting [5], 91 % of control; under setting [6], 97 % of control.
